Values of other authors as cited in patent publication US20190314449A1, “CYCLIC DIPEPTIDES AND WOUND HEALING” (THE BOARD OF REGENTS OF THE UNIVERSITY OF TEXAS SYSTEM, priority 2016, published 2019).

Columns and labels:
[1] = human, acute oral, 24 mg/dose, cited from earlier work
heme oxygenase 1 = details: neuronal cultures; cited from earlier work

O=C1NC(Cc2c[nH]cn2)C(=O)N2CCCC12 (centres unmarked) [Cyclo-His-Pro]
time at which plasma CHP levels peak ([1]; plasma): 4 h
time at which plasma CHP levels return to normal ([1]; plasma): ≤ 24 h
absorption from the gastrointestinal tract [1]: absorbed from the gastrointestinal tract
side effects based on physical and blood chemistry examinations [1]: No side effects
heme oxygenase 1 expression via activation of Nrf-2 ARE signaling (heme oxygenase 1): up-regulate heme oxygenase 1
